Data on 9 compounds can be found in patent US20210205260A1, “MP53 RESCUE COMPONDS AND METHODS OF TREATING A P53 DISORDER” (priority 2018, published 2021).

The nature of series [1]: Representative effective dose in humans (Table 16). Format: in vivo, human. To be noted: oral. The source says: The PANDA Agent comprising a three and/or five valence arsenic is generally effective in treating cancer in a human at a wide range of dosages by intravenous injection and oral administration.
The PANDA Agent comprising a three and/or five valence antimony is generally effective in treating cancer in a human at a wide range of dosages by intravenous injection and oral administration. In certain embodiments, the effective dose results in a maximum Sb concentration in the patient's blood (plasma) from about 3.58 mg/L to about 357.5 mg/L, preferably from about 3.58 mg/L to about 179 mg/L, more preferably from about 7.15 mg/L to about 179 mg/L, more preferably from about 7.15 mg/L to about 107 mg/L, more preferably from about 12 mg/L to about 107 mg/L, more preferably from about 32.7 to about 38.8 mg/L. In certain embodiments, the daily dose is from about 20 mg/kg, wherein the maximum Sb concentration is from about 32.7 mg/L to about 38.8 mg/L, and wherein the platform Sb concentration in blood (plasma) is about 3.5 mg/L.
The PANDA Agent comprising a three and/or five valence bismuth is generally effective in treating cancer in a human at a wide range of dosages by intravenous injection and oral administration. In certain embodiments, the effective dose results in a maximum Bi concentration in the patient's blood (plasma) from about 3 mg/L to about 300 mg/L, preferably from about 3 mg/L to about 150 mg/L, more preferably from about 6 mg/L to about 150 mg/L, more preferably from about 6 mg/L to about 90 mg/L, more preferably from about 10 mg/L to about 90 mg/L, more preferably from about […]. In certain embodiments, the daily dose is from about 20 mg/kg, wherein the maximum Bi concentration is from about 32.7 mg/L to about 38.8 mg/L, and wherein the platform Bi concentration in blood (plasma) is about 3.5 mg/L.

A short description of series [2]: Representative effective dose for mouse studies (Table 15). Type of series: in vivo. To be noted: oral. The procedure: The PANDA Agent comprising a three and/or five valence arsenic is generally effective in treating cancer in a subject, including an animal, at a dose at a wide range of dosages by intravenous injection and oral administration. In certain embodiments, the daily dosage is from about 0.5 mg/kg to about 50 mg/kg, preferably from about 0.5 mg/kg to about 25 mg/kg, more preferably from about 1 mg/kg to about 25 mg/kg, more preferably from about 1 mg/kg to about 15 mg/kg, more preferably from about 1.7 mg/kg to about 15 mg/kg, and more preferably from about 1.7 mg/kg to about 5 mg/kg. In certain embodiments, the dose is about 5 mg/kg. In certain embodiments, the PANDA Agent ATO is administered by intravenous injection or by oral administration at 1 mg/ml concentration, at a dose of 5 mg/kg per day.
In other embodiments, the daily dosage is from about 10 mg/kg to about 1000 mg/kg, preferably from about 10 mg/kg to about 500 mg/kg, more preferably from about 20 mg/kg to about 500 mg/kg, more preferably from about 20 mg/kg to about 300 mg/kg, more preferably from about 33 mg/kg to about 300 mg/kg, and more preferably from about 33 mg/kg to about 100 mg/kg. In certain embodiments, the dose is about 100 mg/kg. In certain embodiments, the PANDA Agent As2S2, As2S3, As2S5, and As4S4 is administered by oral administration at 15 mg/L concentration, at a dose of 100 mg/kg
(§1) The PANDA Agent comprising a three valence and/or five valence antimony is generally effective in treating cancer in a subject, including an animal, at a dose at a wide range of dosages by intravenous injection and oral administration. In certain embodiments, dosage is from about 60 mg/kg to about 6000 mg/kg, preferably from about 60 mg/kg to about 3000 mg/kg, more preferably from about 120 mg/kg to about 3000 mg/kg, more preferably from about 120 mg/kg to about 1500 mg/kg, more preferably from about 150 mg/kg to about 1200 mg/kg, and more preferably from about 300 mg/kg to about 1200 mg/kg. In certain embodiments, the dose is about 600 mg/kg. In certain embodiments, the PANDA Agent is administered by intravenous or oral administration at 100 mg/ml concentration, at a dose of 600 mg/kg per day.
as §1, with “bismuth” for “antimony”, “embodiments, the daily” for “embodiments,”, “In certain embodiments, the dose is about 600 mg/kg. In certain embodiments, the PANDA Agent is administered by intravenous or oral administration at 100 mg/ml concentration, at a dose of 600 mg/kg per day.” left out

The test system of series [3] is APL patients. To be noted: orally administrated; cited from earlier work.
For series [4], the system named is mp53. In words: Functional rescuability of indicated mp53s (Luciferase, qPCR and/or Western blot). Format: cell-based, human. Particulars: for Func. Res: Table 9, functionally rescuable by PANDA Agent ATO, label = mp53; for Func. Res. (whether the mp53 is functionally rescuable): Table 8, label = mp53 mutation, rescue agent ATO. The procedure:
(§2) For p53 folding assay, H1299 cells transfected with indicated TP53 were treated with 1 μg/ml ATO for 2 hr, and cells were lysed followed by immunoprecipitation using PAb1620. Immunoprecipitated p53 was immunoblotted. Experiments are repeated twice. For p53 transcriptional activity assay, H1299 cells were co-transfected with indicated TP53 and PUMA reporter for 24 hr, followed by treatment of 1 μg/ml ATO for 24 hr. […] X-axis: PAb1620 IP efficiency; Y-axis: PUMA luciferase report signal. Hollow cycles: without ATO treatment; solid cycles: with ATO treatment.
Cells were plated at a concentration of 2×10^4 cells/well in 24-well plates, followed by transfection of luciferase reporter plasmids for 24 hr. All transfection contained 300 ng p53 expressing plasmid, 100 ng of luciferase reporter plasmid and 5 ng of renilla plasmid per well. After agent treatment, cells were lysed in luciferase reporter assay buffer and determined using a luciferase assay kit (Promega). Activities of luciferase were divided by that of renilla to normalize the transfection efficiency.
Total RNA was isolated from cells using Total RNA Purification Kit (B518651, Sangon Biotech). 1 μg total RNA was reverse-transcribed using the GoScript®™ Reverse Transcriptase System (A5001, Promega) following manufacturer's protocol. PCR was performed in triplicate using SYBR green mix (Applied Biosystems), and a ViiA™ 7 Real-Time PCR System (Applied Biosystems) under the following conditions: 10 min at 95° C. followed by 40 cycles of 95° C. for 15 s and 60° C. for 1 min. Specificity of the PCR product was checked for each primer set and samples from the melting curve analysis. Expression levels of targeted genes were normalized relative to levels of β-actin adopting comparative Ct method. The primer sequences are as follows: MDM2 forward 5′-[…]-3′, reverse 5′-[…]-3′; PIG3 forward 5′-[…]-3′, reverse 5′-[…]-3′; PUMA forward 5′-[…]-3′, reverse 5′-[…]-3′; p21 forward 5′-[…]-3′, reverse 5′-[…]-3′; Bax forward 5′-[…]-3′, reverse 5′-[…]-3′; #-actin forward 5′-[…]-3′, reverse 5′-[…]-3′.
A general note: Real-time PCR tracks product formation cycle by cycle.

The test system of series [5] is mp53. Briefly: PAb1620 immunoprecipitation, structural rescuability of indicated mp53s (with/without ATO). Format: cell-based, human. Particulars: for Str. Res: Table 9, structurally rescuable by PANDA Agent ATO, label = mp53; for 1620 TP (PAb1620 immunoprecipitation efficiency): presence vs absence of ATO, cell line not indicated in this part of Table 9; for Str. Res. (whether the mp53 is structurally rescuable): Table 8, label = mp53 mutation, rescue agent ATO. The procedure:
as §2
NP40 buffer at room temperature.

Series [6] has as its system mp53. In words: mp53 rescue profile (either structurally or functionally rescuable). Format: cell-based, human. Particulars: Table 8; label = mp53 mutation; rescue agent ATO.
Series [7] deals with p53. Briefly: Inductively coupled plasma mass spectroscopy (ICP-MS), arsenic per p53. Format: binding. An excerpt:
We further discovered that elemental arsenic, elemental bismuth, elemental antimony, and compounds containing elemental arsenic, bismuth, and/or antimony are good rescue compounds for mp53. […] The arsenic-, bismuth-, and antimony-mediated mp53 rescue is achieved by binding of the released arsenic, bismuth, and antimony to mp53. […] The arsenic-, bismuth-, and antimony-mediated mp53 rescue also elevates mp53 Tm. […] Moreover, these rescue compounds can also rescue one or more mp53s.

Where [8] appears, read: presence vs absence of ATO, cell line not indicated.

Regarding `S1[As]2S[As]3S[As]2S[As]13` [As4S4, reference compound], in series [1], the “Maximun Metal concentration in blood (plasma)” value (shortened to “Maximun Metal concentration”) fell in the range of 0.57 to 1.31 mg/L, the “Platform Metal concentration in blood (plasma)” value (“Platform Metal concentration” for short) is 0.03 to 0.07 mg/L and the “Representative effective dose: Dose per day” value is 2.80 mg/kg. In addition, the “Representative effective dose: Dose per day” value in series [2] was determined as 100 mg/kg. In series [3], the “efficacy in treating APL patients (in words)” value is “as effective as conventional intravenous ATO”.
With `S=[As]S[As]=S` (centres unmarked) [As2S3], in series [1], the “Maximun Metal concentration” value lay in the range of 0.57 to 1.31 mg/L, the “Platform Metal concentration” value was 0.03-0.07 L mg/L and the “Representative effective dose: Dose per day” value stood at 3.20 mg/kg. The “Representative effective dose: Dose per day” value in series [2] is 100 mg/kg.
Turning to D281H, in series [4], the “Func. Res” value is reported as “Yes (the PANDA Agent can rescue one or more of the mp53's wild type function to a 1.5 fold or more, as measured by luciferase assay, qPCR, or Western blot)”. In addition, the “Luciferase Assay PUMA” value in series [4] (setting [8]) was determined as 2.2 fold. In addition, in series [5], the “Str. Res” value is “Yes (can be rescured by the PANDA Agent ATO, as measured to a 1.5 fold or more increase in PAb1620 immunoprecipitation signal)” and the “1620 TP (PAb1620 immunoprecipitation efficiency)” value (“1620 TP” for short) is 2.1 fold.
For `S=[As](=S)S[As](=S)=S` [As2S5], the “Representative effective dose: Dose per day” value in series [1] is listed as 4.05 mg/kg; in series [2], 100 mg/kg.
As for `S=[As][As]=S` (centres unmarked) [As2S2], in series [1], the “Maximun Metal concentration” value is 0.57 to 1.31 mg/L, the “Platform Metal concentration” value lay within 0.03 to 0.07 mg/L and the “Representative effective dose: Dose per day” value is reported as 2.80 mg/kg. In addition, in series [2], the “Representative effective dose: Dose per day” value is 100 mg/kg.
Consider H179P, for which the “Res. (either structurally or functionally rescuable)” value in series [6] is given as “Yes”. The “Func. Res. (whether the mp53 is functionally rescuable)” value in series [4] is given as “Yes”. For the same compound, the “Str. Res. (whether the mp53 is structurally rescuable)” value in series [5] is listed as “Yes”.
As for H179R, the “Func. Res” value in series [4] is on record as “Yes (the PANDA Agent can rescue one or more of the mp53's wild type function to a 1.5 fold or more, as measured by luciferase assay, qPCR, or Western blot)”. Besides, in series [4] (setting [8]), the “Luciferase Assay CDKNIA” value turned out to be 1.0 fold and the “Luciferase Assay PUMA” value was 1.8 fold. In series [5], the “Str. Res” value is reported as “Yes (can be rescured by the PANDA Agent ATO, as measured to a 1.5 fold or more increase in PAb1620 immunoprecipitation signal)” and the “1620 TP” value was 4.6 fold.
With R283H, the “Res. (either structurally or functionally rescuable)” value in series [6] is given as “Yes”. Further, in series [4], the “Func. Res. (whether the mp53 is functionally rescuable)” value is reported as “Yes” and the “Func. Res” value is “Yes (the PANDA Agent can rescue one or more of the mp53's wild type function to a 1.5 fold or more, as measured by luciferase assay, qPCR, or Western blot)”. In series [4] (setting [8]), the “Luciferase Assay PUMA” value was 1.6 fold. For the same compound, in series [5], the “Str. Res. (whether the mp53 is structurally rescuable)” value was “Yes”; the “Str. Res” value is “Yes (can be rescured by the PANDA Agent ATO, as measured to a 1.5 fold or more increase in PAb1620 immunoprecipitation signal)”; the “1620 TP” value is 1.6 fold.
As to `[AsH3]` [arsenic], in series [7], the “arsenic bound per p53 (ICP-MS)” value was 0.93±0.19 arsenic per p53.
